Reference: PMC8763243, “Synthesis of Novel Suramin Analogs With Anti-Proliferative Activity via FGF1 and FGFRD2 Blockade” (Frontiers in Chemistry, 2022)
Several values for one entry are separate records, joined by “and”; a condition that tells them apart may be missing. Equal entries are not always repeated.

What was measured:
[1] = target: T1, FGF1 (Homo sapiens, UniProt P05230); assay: Fluorescence spectroscopy binding constant of FGF1 and suramin derivatives; conditions: fluorescence quenching, 5 µM FGF1, non-linear regression with Stern–Volmer equation, pH 6.5
T1 construct: made in house
T1 sequence (P05230 whole entry): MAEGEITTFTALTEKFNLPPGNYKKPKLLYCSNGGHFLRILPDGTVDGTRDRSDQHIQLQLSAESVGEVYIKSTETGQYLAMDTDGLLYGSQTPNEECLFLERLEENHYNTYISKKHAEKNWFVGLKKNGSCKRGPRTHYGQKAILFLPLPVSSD
Method: The binding constant Kd was calculated for FGF1 and the five derivatives in a buffer containing 10% D2O, 50 mM AMS, 20 mM phosphate buffer, and 50 mM NaCl at pH 6.5 using an F-2500 Hitachi fluorescence spectrophotometer.
[…] has tremendous significance for biochemical application because it provides valuable knowledge about the probability of quencher activity. The anti-mitogenic activity of the five compounds was achieved by the same mechanism in which suramin inhibits the mitogenic activity of FGF1. A non-linear regression curve was plotted for the relative intensities of activity versus drug concentration using the Stern–Volmer equation (Eq. 1). log(F0−F)/F=logK+nlog[Q], (1)
where F0 represents the fluorescence intensity in the absence of the compounds, and F represents the fluorescence intensity in the presence of the [Q] concentration of the compounds.
Increasing concentrations of these five suramin derivatives were added to a solution containing 5 µM FGF1. A reduction in the fluorescence intensity was reported for all five suramin derivatives. The Stern–Volmer equation was used to calculate the binding constant between FGF1 and compounds 14, 15, 17, 18, and 21 for relative intensities versus the total concentration in a non-linear regression curve.

[2] = tested on: MCF-7 cells; assay: WST-1 assay, FGF1-stimulated cell proliferation; format: cell-based, human; conditions: serum-starved MCF-7, 100 nM FGF1, 100 nM, 500 nM and 1 µM of test substance, 48 h
Method: (§1) The water-soluble tetrazolium salt (WST-1) assay was performed to assess the effects of the compounds on cell proliferation and cytotoxicity. DMEM/F12 containing 10% FBS was used for the cell culture, and incubation was performed in 5% CO2 till the logarithmic growth phase was achieved. On the day before the experiment, the cells were trypsinized and seeded in a 96-well plate at a density of 5000 cells/well. For the FGF1-stimulated cell proliferation assay, the cells were then incubated for 24 h in a serum-free medium containing 0.1% bovine serum albumin (BSA). Serum-starved cells with or without a specified concentration of suramin, 14, 15, 17, 18, 21, and FGFRD2 were stimulated with 100 nM of FGF1 again for 48 h. For the purpose of the cytotoxicity assay, the cells were treated with an increased concentration of suramin and compounds 14, 17, 15, 18, and 21 (Figure 6) for 48 h. Also, 1/10 of the volume of WST-1 cell reagent was inserted in every well and maintained at 37°C for another 4 h before harvesting. There was gentle agitation of the medium in the cell culture plate for 10 min using a shaker. A Synergy 2 microplate reader (BioTek Instruments, Inc., VT, United States) was used to measure the absorbance at 450 nm. The relative absorbance was compared with the control treatment to determine the relative cell number.
Cell proliferation was measured using the WST-1 assay. […]

[3] = WST-1 assay, cytotoxicity in tumorigenic cells; format: cell-based, human; conditions: human; MCF-7 cells, 48 h, SigmaPlot; read-out: estimated IC50 (cytotoxicity)
Method: as §1
(§2) […] […] The reason for the higher cytotoxicity was the presence of methyl groups on the suramin structure ([Martello et al., 2001]).
(§3) Suramin-induced neuropathy may depend on the effects on calcium (Ca^2+) homeostasis as a potential pathological mechanism, and the full or partial positive charge of the element when directly attached to the ring at each of the sulphonic groups (HSO3). These interactions exert a moderate to strong electron-withdrawing inductive effect, which may be responsible for the observed suramin cytotoxicity ([Prasetyaningrum et al., 2018]; [Von Der Ahe et al., 2018]). The cytotoxicity of the synthesized analogs was lower as there were methyl groups and no sulfonic acid groups attached to the suramin backbone. The IC50 values of the synthesized compounds in MCF-7 breast cancer cells were analyzed using SigmaPlot software.

[4] = tested on: MCF-7 cells; assay: WST-1 assay, cytotoxicity in tumorigenic cells; format: cell-based, human; conditions: for Mean (Blank 450) / Fold (mean) / Blank 450 / Fold: S8; for Fold (mean): relative to control; for Blank 450: single replicate absorbance; for Fold: single replicate relative to control; for cytotoxicity compared with suramin: MCF-7 cells, 1-100 µM, 48 h, especially at concentrations higher than 10 µM
Method: as §1, §2, §3

[5] = WST-1 assay, cytotoxicity in normal breast epithelial cell line (non-tumorigenic); format: cell-based; conditions: human; non-tumorigenic MCF-10A cells; read-out: estimated IC50 (cytotoxicity)
Method: as §1
In order to gain some insight about the selectivity of the compounds between tumorigenic and non-tumorigenic cells, the cytotoxicity was also being evaluated against normal breast cell lines by examining the cytotoxicity of suramin and its derivatives, compounds 15, 18, and 21, in a normal breast epithelial cell line (non-tumorigenic), MCF-10A. […] Compared to their cytotoxicity in tumorigenic MCF-7 cells (Figure 6), the estimated IC50 values in MCF-10A were higher than those in MCF-7 cells. […] However, the estimated IC50 value of suramin and its derivatives in both non-tumorigenic MCF-10A and tumorigenic MCF-7 cells were over 100 μM. The effective concentrations of suramin and its derivatives to attenuate FGF1-stimulated cell proliferation in MCF-7 cells were around 1 μM (Figure 5), which is non-toxic concentration to both MCF-7 cells and MCF-10A cells. […] Therefore, in addition to the specificity of each drug, the selectivity of suramin and its derivatives to disrupt the FGF1/FGFR-mediated breast cancer growth might rely on the overexpression or amplification of FGFR2 in breast cancer cells, but not in normal cells, and the secreted FGF1 ligand by autocrine or paracrine effects from cancer cells or their surrounding stroma cells or adipocytes (tumor microenvironment). The statistical data for the cytotoxicity are shown in Supplementary Figure S8.

Structure (SMILES)	Kd [1]	IC50 at 48 h [3]	Mean (Blank 450) ([4]; 1 uM)	Fold (mean) ([4]; 1 uM)	Blank 450 ([4]; 1 uM)	Fold ([4]; 1 uM)	Mean (Blank 450) ([4]; 5 uM)	Fold (mean) ([4]; 5 uM)	Blank 450 ([4]; 5 uM)	Fold ([4]; 5 uM)	Mean (Blank 450) ([4]; 10 uM)	Fold (mean) ([4]; 10 uM)	Blank 450 ([4]; 10 uM)	Fold ([4]; 10 uM)	Mean (Blank 450) ([4]; 100 uM)	Fold (mean) ([4]; 100 uM)	Blank 450 ([4]; 100 uM)	Fold ([4]; 100 uM)	cytotoxicity compared with suramin [4]	Mean (Blank 450) ([4]; 50 uM)	also measured
O=C(Nc1ccc(C(=O)Nc2cccc3cc(S(=O)(=O)O)ccc23)cc1)Nc1ccc(C(=O)Nc2cccc3cc(S(=O)(=O)O)ccc23)cc1 [Compound 14, Sodium 5,5'-((4,4'-(carbonylbis (azanediyl))bis (benzoyl))bis (azanediyl)) bis (naphthalene-2-sulfonate)]	13.7 µM	> 100 µM	0.231	1.03	0.248 and 0.227 and 0.205 and 0.242	1.113 and 1.019 and 0.920 and 1.086	0.225	1.01	0.219 and 0.241 and 0.23 and 0.208	0.983 and 1.082 and 1.033 and 0.934	0.211	0.95	0.206 and 0.193 and 0.225 and 0.218	0.925 and 0.866 and 1.010 and 0.979	0.198	0.89	0.209 and 0.195 and 0.181 and 0.208	0.938 and 0.875 and 0.813 and 0.934	less toxic	–	effect on FGF1-stimulated cell proliferation [2]: more potent inhibitory effects; Mean (Blank 450) ([4]; 0.5 uM): 0.233; Fold (mean) ([4]; 0.5 uM): 1.04; Blank 450 ([4]; 0.5 uM): 0.228 and 0.253 and 0.244 and 0.205; Fold ([4]; 0.5 uM): 1.024 and 1.136 and 1.095 and 0.920
O=C(Nc1ccc(C(=O)Nc2cc(S(=O)(=O)O)cc3cc(S(=O)(=O)O)cc(S(=O)(=O)O)c23)s1)Nc1ccc(C(=O)Nc2cc(S(=O)(=O)O)cc3cc(S(=O)(=O)O)cc(S(=O)(=O)O)c23)s1 [Compound 21, Sodium 8,8'-((5,5'-(carbonylbis (azanediyl))bis (thiophene-5,2-diyl-2-carbonyl))bis (azanediyl)) bis (naphthalene-1,3,6-trisulfonate)]	15.9 µM	> 100 µM	1.167	1.00	1.107 and 1.215 and 1.169 and 1.177	0.950 and 1.043 and 1.003 and 1.010	1.178	1.01	1.145 and 1.151 and 1.183 and 1.233	0.983 and 0.988 and 1.015 and 1.058	1.163	1.00	1.136 and 1.167 and 1.187 and 1.163	0.975 and 1.002 and 1.019 and 0.998	1.021	0.88	1.046 and 1.075 and 0.916	0.898 and 0.923 and 0.786	less toxic	1.124	Fold (mean) ([4]; 50 uM): 0.96; Blank 450 ([4]; 50 uM): 1.137 and 1.128 and 1.113 and 1.119; Fold ([4]; 50 uM): 0.976 and 0.968 and 0.955 and 0.960; IC50 at 48 h [5]: 628 ± 1.45 µM
Cc1ccc(C(=O)Nc2ccc(S(=O)(=O)O)c3cc(S(=O)(=O)O)cc(S(=O)(=O)O)c23)cc1NC(=O)c1cccc(NC(=O)Nc2cccc(C(=O)Nc3cc(C(=O)Nc4ccc(S(=O)(=O)O)c5cc(S(=O)(=O)O)cc(S(=O)(=O)O)c45)ccc3C)c2)c1 [suramin]	–	> 100 µM	1.211	1.04	1.289 and 1.186 and 1.173 and 1.197	1.106 and 1.018 and 1.007 and 1.027	1.160	1.00	1.137 and 1.217 and 1.147 and 1.138	0.976 and 1.044 and 0.984 and 0.977	1.116	0.96	1.187 and 1.064 and 1.159 and 1.052	1.019 and 0.913 and 0.995 and 0.903	0.817	0.70	0.795 and 0.82 and 0.838 and 0.816	0.682 and 0.704 and 0.719 and 0.700	highest among all the analogs	1.004	Fold (mean) ([4]; 50 uM): 0.86; Blank 450 ([4]; 50 uM): 0.936 and 0.988 and 1.088 and 1.004; Fold ([4]; 50 uM): 0.803 and 0.848 and 0.934 and 0.862; IC50 at 48 h [5]: 222 ± 2.4 µM
